For the test, the target named is T1, EUGT11 (Oryza sativa, UniProt Q0DPB7).
T1 construct: gene Os03g0702000
T1 sequence (Q0DPB7 1-462): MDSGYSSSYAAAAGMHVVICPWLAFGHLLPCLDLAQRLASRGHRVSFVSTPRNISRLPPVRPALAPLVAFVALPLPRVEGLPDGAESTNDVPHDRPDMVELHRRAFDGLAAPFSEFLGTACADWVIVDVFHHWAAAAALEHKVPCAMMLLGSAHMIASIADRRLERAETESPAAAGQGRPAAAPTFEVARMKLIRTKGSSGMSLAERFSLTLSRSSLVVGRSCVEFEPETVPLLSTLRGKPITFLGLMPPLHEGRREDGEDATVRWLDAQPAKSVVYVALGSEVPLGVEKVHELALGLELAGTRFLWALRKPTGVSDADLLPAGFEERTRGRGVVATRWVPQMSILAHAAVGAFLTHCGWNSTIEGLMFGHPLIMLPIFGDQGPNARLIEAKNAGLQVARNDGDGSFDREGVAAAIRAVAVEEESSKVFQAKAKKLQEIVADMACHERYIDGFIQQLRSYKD
In words: cell-free synthesised enzyme, HPLC product detection. Particulars: 2 mM UDP-glucose, 2 mM Reb A, 50 mM PBS pH 8.0, 35 °C, 12 h; positive control.

The structures appear in SMILES notation.

As to `C=C1C[C@@]23CC[C@H]4[C@@](C)(CCC[C@@]4(C)C(=O)O[C@@H]4O[C@H](CO)[C@@H](O)[C@H](O)[C@H]4O)[C@@H]2CC[C@]1(O[C@@H]1O[C@H](CO)[C@@H](O)[C@H](O[C@@H]2O[C@H](CO)[C@@H](O)[C@H](O)[C@H]2O)[C@H]1O[C@@H]1O[C@H](CO)[C@@H](O)[C@H](O)[C@H]1O)C3` [Reb A], the “cell-free synthesised enzyme, HPLC product detection” value was “the glycosylated product of Reb A catalyzed by EUGT11 had the same HPLC retention time”.

These data come from publication PMC9092651, “Improving Thermostability and Catalytic Activity of Glycosyltransferase From Panax ginseng by Semi-Rational Design for Rebaudioside D Synthesis” (Frontiers in Bioengineering and Biotechnology, 2022).
